The results in this text go back to patent EP0868914B1, “USE OF A FLAVONOID-CONTAINING EXTRACT OF THE PLANT EUPHORBIA PROSTRATA IN THE MANUFACTURE OF A MEDICAMENT FOR THE TREATMENT OF AN ANORECTIC OR COLONIC DISEASE” (PANACEA BIOTEC LIMITED, priority 1997, dated 1998).

Assay [1] deals with croton oil-induced oedema in mice ears. Description: Croton oil ear test (oedema), topical. The note with it: for Activity Ratio on Molar basis: Indomethacin = 1; for ID50 / ID50 (column head printed: Activity Ratio): croton oil ear test in mice, Italian institute data.
Assay [2] has as its system Carrageenan-induced Pedal Oedema. Description: Carrageenan-induced pedal oedema in rats (oral extract, intraperitoneal indomethacin). Type of assay: in vivo. The note with it: for Oedema + SEM (%): intraperitoneal.
Assay [3] has as its system Carrageenan-induced Mice Paw Oedema. Description: Carrageenan-induced paw oedema in mice, topical application. The class given is in vivo. As to conditions: topical Indomethacin. On the procedure: The duration of action of topical preparation was determined by studying the effects of different concentrations of the drug on oedema over a period of 8 hr. As evident from the Table 3, the peak inhibition was observed after 3-4 hours of carrageenan injection begining at 2 hr for the extract at lower concentrations (0.5-2.0%) and 1 hr. at 4 % concentration.
In general terms: Carrageenan injected into the paw causes an acute inflammation.

The test system of assay [4] is granulocyte infiltration (MPO activity). The experiment in a line: Granulocyte infiltration (MPO activity) in the croton oil ear test. Type of assay: in vivo, mice. As to conditions: One unit = 1 nMol/min. of tetraguaiacol formed at 25°C.
Setting [5] is: 1.26µMol, 6 hours after treatment.
Where [6] appears, read: 1.26µMol, 18 hours after treatment.
Where [7] appears, read: 1.26µMol, 30 hours after treatment.

The structures appear in SMILES notation. Marks after values point to notes of the source that are not given here.

Take `C[C@@H]1O[C@@H](OC[C@H]2O[C@@H](Oc3c(-c4ccc(O)c(O)c4)oc4cc(O)cc(O)c4c3=O)[C@H](O)[C@@H](O)[C@@H]2O)[C@H](O)[C@H](O)[C@H]1O` [Rutin]: in assay [1], the “Activity Ratio on Molar basis” value is reported as 0.28, the ID50 worked out at 282 µg/ear and the “ID50 (column head printed: Activity Ratio)” value was 0.462 µmol/ear.

For the compound `COc1ccc2c(c1)c(CC(=O)O)c(C)n2C(=O)c1ccc(Cl)cc1` [Indomethacin], the inhibition of oedema in assay [2] (1mg/kg, i.p.) is 74%. Besides, the “Oedema + SEM (%)” value in assay [2] (0.5 mg/Kg, +30 min) amounted to 13.6±4.0%; in assay [2] (0.5 mg/Kg, +60 min), 18.9±4.0%; in assay [2] (0.5 mg/Kg, +120 min), 28.8±4.2%; in assay [2] (1.0 mg/Kg, +30 min) it was 9.3±2.3%; in assay [2] (1.0 mg/Kg, +60 min), 12.3±2.2%; in assay [2] (1.0 mg/Kg, +120 min), 16.4±1.6%. Besides, the “Oedema + SEM (%)” value in assay [2] (2.0 mg/Kg, +30 min) stood at 8.2±1.5%; in assay [2] (2.0 mg/Kg, +60 min), 12.8±1.8%. In addition, the “inhibition of Carrageenan-induced Mice Paw Oedema” value in assay [3] (Dose 1.00 %, +60 m) is listed as 18.2** %; in assay [3] (Dose 1.00 %, +120 m), 24.0** %; in assay [3] (Dose 1.00 %, +180 m), 29.0** %; in assay [3] (Dose 1.00 %, +240 m) it was 21.2** %; in assay [3] (Dose 1.00 %, +360 m), 9.6** %; in assay [3] (Dose 1.00 %, +480 m), 4.6%. Also, the “inhibition of Carrageenan-induced Mice Paw Oedema” value in assay [3] (Dose 2.00 %, +60 m) is 24.2* %; in assay [3] (Dose 2.00 %, +120 m), 26.0* %; in assay [3] (Dose 2.00 %, +180 m), 41.9*** %; in assay [3] (Dose 2.00 %, +180 m, listed as indomethacin), 41.9%; in assay [3] (Dose 2.00 %, +240 m), 36.4* %; in assay [3] (Dose 2.00 %, +360 m) it was 11.5* %. Also, the “inhibition of Carrageenan-induced Mice Paw Oedema” value in assay [3] (Dose 2.00 %, +480 m) is 10.6%. Moreover, the “Effect on granulocyte infiltration (MPO activity)” value in assay [4] (setting [5]) amounted to 0.0±0.1 unit; in assay [4] (setting [6]), 10.0±1.6 unit; in assay [4] (setting [7]), 6.8±3.4 unit. The “Effect on Oedema Development” value in assay [1] (setting [5]) was found to be 0.0 ± 0.1 mg; in assay [1] (setting [6]), 3.1 ± 0.4 mg; in assay [1] (setting [7]), 0.5 ± 0.1 mg. Moreover, the “antiinflammatory activity (oedema) in words” value in assay [1] (18 hours after treatment) was “lose their antiinflammatory activity”. Moreover, in assay [1], the “Activity Ratio on Molar basis” value was found to be 1.00. The compound also registered an ID50 in assay [1] of 46.1 µg/ear. In addition, the “ID50 (column head printed: Activity Ratio)” value in assay [1] amounted to 0.126 µmol/ear.

Regarding `O=c1cc(-c2ccc(O)cc2)oc2cc(O[C@@H]3O[C@H](CO)[C@@H](O)[C@H](O)[C@H]3O)cc(O)c12` [Apigenin-7-glucoside], in assay [1], the “Activity Ratio on Molar basis” value is 0.32, the ID50 was 175 µg/ear and the “ID50 (column head printed: Activity Ratio)” value was 0.404 µmol/ear.

As for `O=c1c(O)c(-c2ccc(O)c(O)c2)oc2cc(O)cc(O)c12` [Quercetin], in assay [1], the “Activity Ratio on Molar basis” value was found to be 0.65, the ID50 is given as 60.3 µg/ear and the “ID50 (column head printed: Activity Ratio)” value was found to be 0.200 µmol/ear.

As for `C[C@]12CCC(=O)C=C1CC[C@@H]1[C@@H]2[C@@H](O)C[C@@]2(C)[C@H]1CC[C@]2(O)C(=O)CO` [Hydrocortisone], the “Effect on granulocyte infiltration (MPO activity)” value is listed as 0.0±0.2 unit in assay [4] (0.41µMol, 6 hours after treatment); 6.9±2.1 unit in assay [4] (0.41µMol, 18 hours after treatment); 8.2±2.4 unit in assay [4] (0.41µMol, 30 hours after treatment). In addition, the “Effect on Oedema Development” value in assay [1] (0.41 µMol, 6 hours after treatment) amounted to 0.5 ± 0.2 mg; in assay [1] (0.41 µMol, 18 hours after treatment) it was 0.7 ± 0.1 mg; in assay [1] (0.41 µMol, 30 hours after treatment), 0.7 ± 0.1 mg. Moreover, in assay [1] (18 hours after treatment), the “antiinflammatory activity (oedema) in words” value is “maintain their effect to a certain extent”. Moreover, in assay [1], the “Activity Ratio on Molar basis” value is listed as 14.00. The same compound yielded an ID50 in assay [1] of 3.3 µg/ear. Moreover, the “ID50 (column head printed: Activity Ratio)” value in assay [1] worked out at 0.009 µmol/ear.
